Laboratory results reported in article PMC7709710 (Investigational new drugs, 2015).

Key:
[1] = system: Hsp70 protein; assay: Hsp70 protein in PBMCs by Western blot; format: in vivo, human
[2] = system: Hsp70 mRNA; assay: Hsp70 mRNA by RT-PCR in paired tumor biopsies; format: in vivo, human; conditions: one patient, dose level 3 (80 mg/m^2/dose), pre-dose vs day 17 of cycle 1
[3] = system: patients with advanced solid tumors; conditions: human, in vivo, 4 weeks
[4] = system: Hsp90 client proteins; assay: Reverse phase protein array; format: in vivo, human
[5] = system: patients; conditions: cited from earlier work
[6] = target: Hsp90; conditions: cited from earlier work
[7] = Plasma and urine pharmacokinetics in patients; format: in vivo, human
[8] = system: advanced solid tumors; assay: Tumor response by RECIST 1.1; format: in vivo, human
[9] = system: Hsp27 mRNA; assay: Hsp27 mRNA by RT-PCR in paired tumor biopsies; format: in vivo, human; conditions: one patient, dose level 3 (80 mg/m^2/dose), pre-dose vs day 17 of cycle 1
[10] = system: human xenograft models; conditions: several human xenograft models; cited from earlier work
[11] = pre- to post-treatment, RP2D, subgroup 1 (patients 21, 22, 31)
[12] = pre- to post-treatment, RP2D, subgroup 2 (patients 28, 24, 30, 27, 29)
[13] = subgroup 1 only (patients 21, 22, 31)

Structure (SMILES): CC(C)c1cc(C(=O)N2Cc3ccc(CN4CCN(C)CC4)cc3C2)c(O)cc1O [onalespib]
- Hsp70 protein expression in PBMCs at dose level 1 ([1]; Patient #1, dose level 1 (20 mg/m^2)): no increase in Hsp70 expression
- Hsp70 protein expression in PBMC samples ([1]; patients at dose levels 2 through 5 (RP2D)): increased Hsp70 protein expression
- induction of Hsp70 mRNA following treatment [2]: > 1.5 fold
- recommended phase 2 dose (RP2D) [3]: 160 mg/m^2/dose
- within-patient expression changes of 210 client proteins ([4]; 9 patients, RP2D, baseline vs cycle 1 day 16 or 17): no proteins with statistically significant changes
- CHK2, mean log2-normalized expression change: group 1 [4, 11]: 1.0062
- MAP2K2, mean log2-normalized expression change: group 1 [4, 11]: −0.2937
- PRAS, mean log2-normalized expression change: group 1 [4, 11]: 0.3038
- RAB11A/B, mean log2-normalized expression change: group 1 [4, 11]: −0.5853
- Raf-1, mean log2-normalized expression change: group 1 [4, 11]: −0.2670
- STAT3, mean log2-normalized expression change: group 1 [4, 11]: −0.6103
- STAT5A, mean log2-normalized expression change: group 1 [4, 11]: 0.5016
- c-Src, mean log2-normalized expression change: group 1 [4, 11]: −0.5997
- eEF-2 kinase, mean log2-normalized expression change: group 1 [4, 11]: 0.9679
- serpin E1, mean log2-normalized expression change: group 1 [4, 11]: −3.0031
- CHK2, mean log2-normalized expression change: group 2 [4, 12]: 0.1233
- MAP2K2, mean log2-normalized expression change: group 2 [4, 12]: 0.1770
- PRAS, mean log2-normalized expression change: group 2 [4, 12]: −0.1004
- RAB11A/B, mean log2-normalized expression change: group 2 [4, 12]: 0.0826
- Raf-1, mean log2-normalized expression change: group 2 [4, 12]: −0.0855
- STAT3, mean log2-normalized expression change: group 2 [4, 12]: 0.0176
- STAT5A, mean log2-normalized expression change: group 2 [4, 12]: −0.0725
- c-Src, mean log2-normalized expression change: group 2 [4, 12]: −0.0664
- eEF-2 kinase, mean log2-normalized expression change: group 2 [4, 12]: −0.0370
- serpin E1, mean log2-normalized expression change: group 2 [4, 12]: 0.2094
- decrease in CHK1 phosphorylation after treatment [4, 13]: > 2 fold
- decrease in CHK2 phosphorylation after treatment [4, 13]: > 2 fold
- patients with visual disturbances ([5]; 120 mg/m^2/dose twice weekly): 10 of 13
- maximum-tolerated-dose ([5]; twice weekly dosing, days 1, 4, 8, 11, 15, 18 in 28 day cycles): 120 mg/m^2/dose
- Kd [6]: 0.71 nM
- urinary drug excretion ([7]; 24 h after drug administration): < 10%
- plasma accumulation of drug with repeated dosing ([7]; day 1 vs day 15 of cycle 1): no significant plasma accumulation
- plasma exposure to drug (AUC) versus dose ([7]; doses 20–210 mg/m^2): proportional to dose
- half-life ([7]; human, plasma, intravenous): ~8 h
- tumor responses ([8]; 31 patients treated): No responses were observed
- longest time on study (one patient with hepatocellular carcinoma) ([8]; in vivo): 6 cycles
- induction of Hsp27 mRNA following treatment [9]: > 2 fold
- tumor growth inhibition, QDx2/week versus other schedules [10]: consistently greater tumor growth inhibition
